Measurements from US12612374B2, “Thiazole and diphenyl substituted sulfoxides for use in improving cognition functions and against addictions to substances” (Cogmotiv FlexCo, priority 2019, dated 2026).

The compounds below were run against T1, human NET (Homo sapiens, UniProt P23975) (assay: Monoamine transporter reuptake inhibition, [3H]-MPP+ uptake (NET)). Conditions: HEK 293 stably expressing human NET; 0.02 μM [3H]-MPP+, 3 min; means of at least three independent experiments; NS = Not specific in the used concentration range; read-out: NET IC50 ± SD.
T1 construct: expressed in transfected cells
Assay type: cell-based

T1 sequence (P23975 whole entry): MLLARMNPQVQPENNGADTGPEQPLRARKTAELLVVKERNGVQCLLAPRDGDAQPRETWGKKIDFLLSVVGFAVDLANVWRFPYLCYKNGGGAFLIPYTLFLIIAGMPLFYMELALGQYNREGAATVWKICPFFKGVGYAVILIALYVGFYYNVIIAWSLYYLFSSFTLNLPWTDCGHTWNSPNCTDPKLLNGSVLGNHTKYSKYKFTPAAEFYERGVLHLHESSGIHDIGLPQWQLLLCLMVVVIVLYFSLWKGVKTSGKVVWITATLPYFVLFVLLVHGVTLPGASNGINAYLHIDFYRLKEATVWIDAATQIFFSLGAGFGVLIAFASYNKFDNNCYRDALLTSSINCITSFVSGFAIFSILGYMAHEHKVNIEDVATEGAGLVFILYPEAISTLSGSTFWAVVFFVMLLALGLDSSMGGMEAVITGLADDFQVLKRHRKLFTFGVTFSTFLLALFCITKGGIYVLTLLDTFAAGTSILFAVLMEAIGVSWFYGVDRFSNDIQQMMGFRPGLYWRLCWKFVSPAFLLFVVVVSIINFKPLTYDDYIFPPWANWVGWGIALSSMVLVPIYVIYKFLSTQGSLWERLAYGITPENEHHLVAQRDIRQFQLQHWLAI

`[O-][S+](Cc1cncs1)C(c1ccccc1)c1cccc(Br)c1` (mixture of isomers) [(R), 5-((((3-bromophenyl)(phenyl)methyl)sulfinyl)methyl)thiazole] and `[O-][S@@+](Cc1cncs1)[C@@H](c1ccccc1)c1cccc(Br)c1` (single isomer, unassigned) [Compound 1_1] are within error of each other in IC50: 17.2 ± 4.5 µM for the first, 11.7 ± 7.3 µM for the second.

Compared with `[O-][S@+](Cc1cncs1)[C@@H](c1ccccc1)c1cccc(Br)c1` [Compound 1_2], `[O-][S@+](Cc1cncs1)[C@H](c1ccccc1)c1cccc(Br)c1` [Compound 2_2] is 11-fold lower in IC50: 148 ± 68.4 µM for the first, 13.9 ± 15.9 µM for the second.
